Here are results for five compounds from PMC9820345, “Metal Complexes of a 5-Nitro-8-Hydroxyquinoline-Proline Hybrid with Enhanced Water Solubility Targeting Multidrug Resistant Cancer Cells” (International Journal of Molecular Sciences, 2022).

Where two headings read alike, the source gives them in different places. Where only a bound is given, the exact number is not on record here.

The conditions of data set [1]: cited from earlier work.
On the set-up of data set [2]: method as in earlier work. Conditions: pH 7.40, cited from earlier work.
Data set [3] in a line: Proton dissociation constants (pKa) of the ligand by pH-potentiometric, UV-vis and 1H NMR titrations. The class given is physicochemical. The note with it: pH 7.4. The protocol: Characterization of the protonation/deprotonation equilibrium processes of a bioactive molecule is important to reveal its actual chemical form and charge at a given pH. The proton dissociation constant (Ka) is a key physico-chemical parameter since it has an impact on many biopharmaceutical characteristics such as lipophilicity, water solubility, and albumin binding, which in turn directly influences pharmacokinetics. The pKa values of the protonated HQNO2-L-Pro were determined by pH-potentiometric, UV-vis (Figure 1a), and ^1H NMR spectroscopic titrations (Table 1).
The pH-potentiometric measurements were carried out at 25.0 ± 0.1 °C in water in the pH range between 2.0 and 11.5 at a constant ionic strength of 0.2 M KNO3. The titrations were performed in a carbonate-free KOH solution (0.20 or 0.10 M). The exact concentrations of HNO3, HCl, and KOH solutions were always determined by pH-potentiometric titrations. An Orion 710A pH-meter equipped with a Metrohm combined electrode (type 6.0234.100) and a Metrohm 665 Dosimat burette were used for the measurements. […] The average water ionization constant (pKw) was determined as 13.76 ± 0.01, which is in good agreement with the literature data. In the case of the titrations in 30% (v/v) DMSO/H2O, the calibration of the pH-potentiometric system was conducted as in our former works. Samples were degassed by bubbling purified argon through them for about 10 min prior to the measurements, and the inert gas was also passed over the solutions during the titrations. Stoichiometry of the species and their equilibrium constants were obtained similarly to that performed in our previous works, with the use of computer program Hyperquad2013 [50].
An Agilent Cary 8454 diode array spectrophotometer (Santa Clara, CA, USA) was used to obtain UV-vis spectra in the wavelength range 200–1000 nm, while spectra were recorded for the Fe(II)-containing samples using an Avantes (Avantes B.V., Apeldoorn, The Nederlands) AvaSpec-ULS2048CL-EVO spectrometer with an AvaLight-DHc light source and FDP-7UVIR200-2-VAR transmission dip probe. The titrations for the Fe(II)-containing samples were performed in a laboratory glove box (GP(Campus), Jacomex) (O2 content ≤ 1 ppm). The path length (ℓ) was 1 cm in most cases (the actual ℓ is always indicated in the legends of the figures). The concentrations of the ligands and complexes were between 40 and 200 µM, and 0.2 M KNO3 for the organometallic complexes or 0.1 M KCl for the Fe(II/III), Cu(II), and Zn(II) complexes were used to adjust the constant ionic strength. For HSA containing samples, complex concentrations were 50 µM, and 0.5, and 2 equiv. biomolecules were added for kinetic studies, respectively. For HSA model containing samples, complex concentrations were 50 µM, and the model concentrations were 0–150 µM and 0–500 µM, respectively, and the pH was 7.4 (PBS’). Spectra were always background and baseline corrected. The computer program HypSpec was used to obtain stability constants. Hydrolysis constants of the Fe(III), Fe(II), RuCym, and RhCp* species were included in the speciation models (see Table S4 with the data taken from References).
The Bruker Avance III HD Ascend 500 Plus instrument (Billerica, MA, USA) was used for NMR studies. ^1H NMR spectroscopic measurements were carried out with a WATERGATE water suppression pulse scheme in the presence of 10% (v/v) D2O/H2O in most cases. DSS internal standard was added to samples to obtain reference peaks. ^1H NMR titrations were carried out for the ligand alone, and for the organometallic complexes in the presence of 0.2 M KNO3. With the AHA and FHA model peptides, the measurements were performed at pH 7.4 (PBS’) at 0.5 or 1 mM metal complex concentrations, and 1:1, 1:2 or 2:1 peptide-to-metal complex ratios were applied. NMR titrations were also performed for the Zn(II)-ligand systems using 0.1 M KCl ionic strength. […]

In data set [4] the test system is MES-SA. Nature of the data set: In vitro cytotoxicity, MES-SA cells (fluorescent protein readout). Conditions: 144 h exposure. The class given is cell-based, human. The text has this:
(§1) Cell lines: all cell culture reagents were obtained from Sigma-Aldrich; plasticware was purchased from Sarstedt (Nümbrecht, Germany); Human colon Colo205 (chemo-sensitive, ATCC-CCL-222) and Colo320 (Pgp/MDR1-expressing, doxorubicin-resistant, ATCC-CCL-220.1) adenocarcinoma cell lines were purchased from LGC Promochem, Teddington, UK; MES-SA and MES-SA/Dx5 uterine sarcoma cell lines were obtained from ATCC, where they were characterized by DNA fingerprinting. The expression of the Pgp efflux pump of MES-SA/Dx5 was proven by Western blot analysis in our former report, and was also reported for the Colo320 cells. The MES-SA and MES-SA/Dx5 cells used in this study were previously engineered to express the fluorescent proteins mCherry and eGFP, respectively, by lentiviral transduction.
(§2) MES-SA cell lines were maintained in DMEM, supplemented with 10% fetal bovine serum, 5 mmol/L glutamine, and 50 units/mL penicillin and streptomycin. Cells were tested and resulted negative for mycoplasma contamination with the MycoAlert mycoplasma detection Kit (Lonza Group, Basel, Switzerland). One week prior to the cytotoxicity assays, Dx5 eGFP cells were selected in 500 nM doxorubicin for one passage to ensure the overexpression of P-glycoprotein.
(§3) Cytotoxicity assays: The tested compounds were dissolved in PBS buffer to prepare 5 mM stock solutions, which were diluted in complete culture medium.
(§4) In the case of the MES-SA and MES-SA/Dx5 cells, cell suspensions of the fluorescent cell lines were pre-mixed in a 1:1 ratio and seeded in 20 µL medium in a density of 2500 cells/well (1250 cells/well each) in a 384-well plate. After an overnight incubation, a serial dilution of the compounds was added to the plate in a final volume of 60 µL. The P-gp inhibitor tariquidar was added to the cells 15 min prior to the test compounds. After 144 h of incubation, plates were measured for the fluorescent intensity of mCherry (EX/EM: 585 nm/610 nm) and eGFP (EX/EM: 485 nm/510 nm). Cell seeding, aspiration of medium, and addition of drugs were performed by a Hamilton StarLet automated liquid handling robot.
(§5) Inhibition of the cell growth (expressed as IC50: inhibitory concentration that reduces by 50% the growth of the cells exposed to the tested compounds) was determined from the sigmoid curve where 100 − ((ODsample − ODmedium control)/(ODcell control − ODmedium control)) × 100 values were plotted against the logarithm of compound concentrations. Curves for the data obtained on Colo205 and Colo320 cells were fitted by GraphPad Prism software (2021, Graphpad Software, version 7.00, San Diego, CA, USA) using the sigmoidal dose–response model (comparing variable and fixed slopes). From the MES-SA cell data, the IC50 values were calculated by our custom program, written by J. Sessler in C#. The p values were calculated by Student’s t-test. The IC50 values were always obtained from at least three independent experiments.

In data set [5] the test system is MES-SA/Dx5. Nature of the data set: In vitro cytotoxicity, MES-SA/Dx5 cells (fluorescent protein readout). It is filed as cell-based, human.
From the text: as §1, §2, §3, §4, §5

For data set [6], the system named is Colo320. Also on record: method as in PMID 32500882. The note with it: cited from earlier work; for IC50: 72 h exposure; for Selectivity ratio IC50 (Colo205)/IC50 (Colo320): calculated from IC50 values taken from ref 12.
The subject of data set [7] is Colo205. Also on record: method as in PMID 32500882. Conditions: 72 h exposure; cited from earlier work.
Data set [8] is described as follows: Aqueous solubility at physiological pH (S7.4). It is filed as physicochemical. The note with it: pH 7.4.
Details of data set [9]: method as in PMID 32500882. Conditions: cited from earlier work.
The target in data set [10] is T1, HSA site II (Homo sapiens, UniProt P02768).
T1 construct: purchased Sigma-Aldrich (Darmstadt, Germany) A8763
More on the design: method as in PMID 32500882. Conditions: cited from earlier work.

The target of data set [11] is T2, HSA site I (Trp-214) (Homo sapiens, UniProt P02768).
T2 construct: purchased Sigma-Aldrich (Darmstadt, Germany) A8763
Also on record: method as in PMID 32500882. Conditions: cited from earlier work.

For data set [12] the following is noted: pH 7.4, cited from earlier work.

T1 sequence (P02768 25-609): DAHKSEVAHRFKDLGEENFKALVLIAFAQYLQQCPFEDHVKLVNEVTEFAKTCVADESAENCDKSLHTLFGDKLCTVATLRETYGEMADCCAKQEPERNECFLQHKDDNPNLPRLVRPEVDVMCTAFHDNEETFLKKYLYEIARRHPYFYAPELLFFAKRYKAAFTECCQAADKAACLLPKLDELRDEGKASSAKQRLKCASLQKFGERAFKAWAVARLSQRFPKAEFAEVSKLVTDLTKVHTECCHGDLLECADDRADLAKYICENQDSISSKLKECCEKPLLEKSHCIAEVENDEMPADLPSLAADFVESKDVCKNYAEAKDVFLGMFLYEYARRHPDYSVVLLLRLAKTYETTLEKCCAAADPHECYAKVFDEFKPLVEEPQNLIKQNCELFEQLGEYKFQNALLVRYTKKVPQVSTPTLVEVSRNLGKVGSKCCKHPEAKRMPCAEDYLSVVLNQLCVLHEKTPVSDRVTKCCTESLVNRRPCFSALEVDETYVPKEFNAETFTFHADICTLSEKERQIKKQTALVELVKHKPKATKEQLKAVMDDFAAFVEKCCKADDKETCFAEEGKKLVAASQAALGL
T2 sequence (P02768 25-609): as above

Consider `Oc1c(CN2CCCCC2)ccc2cccnc12` [7-(piperidin-1-ylmethyl)quinolin-8-ol], for which, in [1], the “formal potential E'1/2 of the iron complexes” value is given as “+21 mV vs. NHE”.

For the compound `Oc1cccc2cccnc12` [8-hydroxyquinoline], the “formal potential E'1/2 of the iron complexes” value in data set [1] is −323 mV vs. NHE.

As a reminder, the IC50 is the midpoint of a concentration-inhibition curve. In the case of `O=C(O)[C@@H]1CCCN1Cc1cc(Cl)c2cccnc2c1O` [HQCl-L-Pro, reference compound], the “log D7.4” value in data set [2] (4 mM chloride) was “+0.13 ± 0.09”. In addition, in [3], the “fraction of negatively charged form” value is 36.5% and the “fraction of neutral form” value is 63.5%. This compound also showed an IC50 in [4] of 23 ± 4 µM. In data set [5] (144 h exposure), this compound registered an IC50 of 4.3 ± 0.1 µM. Also, the “Selectivity ratio IC50 (MES-SA)/IC50 (MES-SA/Dx5)” value in [5] (calculated from IC50 values in Table 4) was 5.41. In data set [6], the IC50 is 9 ± 2 µM and the “Selectivity ratio IC50 (Colo205)/IC50 (Colo320)” value was 2.75. Further, the IC50 in data set [7] was 23 ± 3 µM. Further, in data set [8], the “solubility in water at physiological pH (S7.4)” value was above 10 mM. Moreover, in data set [9], the “pKa (NProH+)” value is reported as above 11.5 and the “pKa (OH)” value is recorded as 7.76.

In the case of `Cc1c(C)c(C)[c-](C)c1C.O=C(O)[C@@H]1CCC[NH+]1Cc1cc(Cl)c2ccc[n+]3c2c1[O][Rh]3[Cl].[Cl-]` [RhCp*-HQCl-L-Pro], the “DG marker displacement constant logKDG'” value in data set [10] is listed as 5.6. The “log D7.4” value in data set [2] (100 mM chloride) was “+0.10 ± 0.01”. For the same compound, the “quenching constant logKQ'” value in data set [11] was 5.5. Also, the IC50 in [6] was 10 ± 1 µM; in data set [7], 26 ± 5 µM. Also, in [6], the “Selectivity ratio IC50 (Colo205)/IC50 (Colo320)” value is 2.66. The “conditional stability constant logK'” value in data set [12] (calculated based on ref 12) is listed as 12.98.

In the case of `Cc1c(C)c(C)[c-](C)c1C.[Cl][Rh]1[O]c2cccc3ccc[n+]1c23` [RhCp*-HQ], the “conditional stability constant logK'” value in [12] (calculated based on ref 23) is given as 12.76.
